Source: ChEMBL document CHEMBL6071142, “Isoalantolactone/hydroxamic acid hybrids as potent dual STAT3/HDAC inhibitors and self-assembled nanoparticles for cancer therapy” (Eur J Med Chem, 2024)
Active and inactive are the calls of the source. No cut-off for these calls is given here.

Columns and labels:
[1] = Biodistribution in spleen of nude mouse xenografted with A549 cells at 5 mg/kg, iv using chlorine e6 loaded self-assembled nanoparticle as source of compound incubated for 24 hrs by ex-vivo fluorescence based LC-MS/MS analysis; type: ADME, organism-based
[2] = target: Histone deacetylase 11 (Homo sapiens, UniProt Q96DB2); experiment: Inhibition of recombinant human HDAC11 using Boc-Lys (trifluroacetyl)-AMC as substrate preincubated with compound for 1 hr followed by substrate addition and measured after 30 mins by microplate reader assay
Sequence of Histone deacetylase 11 (Q96DB2 whole entry): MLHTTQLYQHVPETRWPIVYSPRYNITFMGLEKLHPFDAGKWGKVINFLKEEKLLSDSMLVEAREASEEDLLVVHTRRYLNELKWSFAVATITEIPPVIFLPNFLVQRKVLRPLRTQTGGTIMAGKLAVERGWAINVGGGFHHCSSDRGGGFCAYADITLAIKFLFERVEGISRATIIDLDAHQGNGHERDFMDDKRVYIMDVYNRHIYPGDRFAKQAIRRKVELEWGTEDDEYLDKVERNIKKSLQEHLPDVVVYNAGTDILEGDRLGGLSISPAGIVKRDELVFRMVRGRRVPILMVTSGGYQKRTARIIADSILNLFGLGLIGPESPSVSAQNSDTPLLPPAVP

[3] = target: T1, Signal transducer and activator of transcription 3 (Homo sapiens, UniProt P40763); experiment: Binding affinity to recombinant human STAT3 using 5-FAM-G(pTyr)LPQTV-NH2 as substrate preincubated with compound for 1 hr followed by substrate addition and measured after 30 mins by fluorescent polarization based binding assay
T1 sequence (P40763 whole entry): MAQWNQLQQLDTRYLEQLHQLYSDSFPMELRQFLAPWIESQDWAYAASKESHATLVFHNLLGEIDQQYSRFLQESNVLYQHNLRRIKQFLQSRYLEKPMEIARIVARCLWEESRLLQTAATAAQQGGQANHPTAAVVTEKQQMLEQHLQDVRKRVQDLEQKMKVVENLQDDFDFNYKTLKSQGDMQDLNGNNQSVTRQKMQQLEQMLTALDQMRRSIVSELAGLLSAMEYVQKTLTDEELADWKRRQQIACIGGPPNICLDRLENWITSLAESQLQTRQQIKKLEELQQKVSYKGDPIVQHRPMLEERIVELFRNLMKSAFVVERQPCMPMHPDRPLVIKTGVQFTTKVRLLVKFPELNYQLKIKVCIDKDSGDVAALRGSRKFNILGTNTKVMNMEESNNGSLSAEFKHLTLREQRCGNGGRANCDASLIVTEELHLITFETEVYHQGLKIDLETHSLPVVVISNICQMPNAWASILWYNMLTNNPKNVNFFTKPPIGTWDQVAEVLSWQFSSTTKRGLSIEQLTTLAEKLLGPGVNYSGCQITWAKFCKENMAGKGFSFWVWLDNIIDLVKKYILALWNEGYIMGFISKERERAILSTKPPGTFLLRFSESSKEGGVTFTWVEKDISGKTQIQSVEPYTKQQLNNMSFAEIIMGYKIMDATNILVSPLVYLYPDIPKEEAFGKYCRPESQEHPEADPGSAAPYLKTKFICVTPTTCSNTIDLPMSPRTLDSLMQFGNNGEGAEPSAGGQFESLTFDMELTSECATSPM

[4] = test system: A549; experiment: In vivo antitumor activity against human A549 cells xenografted in female BALB/c nu/nu mouse assessed as Ac-tubulin at 5 mg/kg, iv administered every 3 days for 9 days by Western blotting analysis; type: functional, organism-based; conditions: time 3.0 day
[5] = Toxicity in female BALB/c nu/nu mouse xenografted with human A549 cells assessed as effect on lung at 2.5 mg/kg, iv by H and E staining based analysis; type: organism-based; conditions: in vivo
[6] = Toxicity in female BALB/c nu/nu mouse xenografted with human A549 cells assessed as effect on heart at 5 mg/kg, iv by H and E staining based analysis; type: organism-based; conditions: in vivo
[7] = target: Class 1 histone deacetylase (Homo sapiens) (UniProt Q13547+O15379+Q92769+Q9BY41); experiment: Inhibition of class 1 HDAC in human A549 cells assessed as increase in Ac-histone H3 level at 0.5 uM incubated for 12 hrs by Western blot analysis; type: cell-based
Sequence of Class 1 histone deacetylase (Homo sapiens) (O15379 whole entry, looked up): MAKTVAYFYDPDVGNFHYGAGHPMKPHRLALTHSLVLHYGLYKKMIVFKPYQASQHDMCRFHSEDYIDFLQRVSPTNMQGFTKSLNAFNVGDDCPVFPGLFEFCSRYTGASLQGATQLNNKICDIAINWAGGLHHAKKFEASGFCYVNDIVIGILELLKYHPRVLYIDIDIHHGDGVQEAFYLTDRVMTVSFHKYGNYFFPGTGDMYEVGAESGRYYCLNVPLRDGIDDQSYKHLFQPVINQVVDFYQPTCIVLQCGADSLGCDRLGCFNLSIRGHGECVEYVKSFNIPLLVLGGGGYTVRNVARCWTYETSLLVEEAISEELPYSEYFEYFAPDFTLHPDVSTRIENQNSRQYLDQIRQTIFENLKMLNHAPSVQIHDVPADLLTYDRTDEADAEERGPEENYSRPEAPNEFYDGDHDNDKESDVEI
Sequence of Class 1 histone deacetylase (Homo sapiens) (Q13547 whole entry, looked up): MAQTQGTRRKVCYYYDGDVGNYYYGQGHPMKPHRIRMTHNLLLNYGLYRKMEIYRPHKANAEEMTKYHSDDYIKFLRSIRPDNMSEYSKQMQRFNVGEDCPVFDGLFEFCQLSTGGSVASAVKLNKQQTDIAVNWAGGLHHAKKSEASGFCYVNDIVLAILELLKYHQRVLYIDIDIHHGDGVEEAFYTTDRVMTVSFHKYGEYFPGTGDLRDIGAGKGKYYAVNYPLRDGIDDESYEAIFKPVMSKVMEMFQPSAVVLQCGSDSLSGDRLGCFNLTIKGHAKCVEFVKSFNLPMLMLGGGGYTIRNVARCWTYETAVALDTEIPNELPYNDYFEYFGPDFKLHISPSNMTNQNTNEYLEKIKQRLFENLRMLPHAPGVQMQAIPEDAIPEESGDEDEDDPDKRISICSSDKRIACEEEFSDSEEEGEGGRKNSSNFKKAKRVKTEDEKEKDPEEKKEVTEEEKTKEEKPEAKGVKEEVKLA
Sequence of Class 1 histone deacetylase (Homo sapiens) (Q92769 whole entry, looked up): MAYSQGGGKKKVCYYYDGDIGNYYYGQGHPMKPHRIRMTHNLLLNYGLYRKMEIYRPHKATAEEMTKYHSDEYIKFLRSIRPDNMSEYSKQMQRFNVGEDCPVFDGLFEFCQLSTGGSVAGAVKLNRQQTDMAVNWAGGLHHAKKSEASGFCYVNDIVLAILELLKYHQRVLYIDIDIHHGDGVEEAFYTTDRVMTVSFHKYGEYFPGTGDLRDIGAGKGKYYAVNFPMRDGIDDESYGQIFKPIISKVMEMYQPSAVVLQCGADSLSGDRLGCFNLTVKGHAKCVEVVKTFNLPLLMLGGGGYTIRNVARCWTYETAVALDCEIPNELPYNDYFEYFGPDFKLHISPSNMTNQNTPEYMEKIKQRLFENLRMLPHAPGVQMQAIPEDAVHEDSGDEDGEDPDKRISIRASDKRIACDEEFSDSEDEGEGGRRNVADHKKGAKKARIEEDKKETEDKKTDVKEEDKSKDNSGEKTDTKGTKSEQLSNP
Sequence of Class 1 histone deacetylase (Homo sapiens) (Q9BY41 whole entry, looked up): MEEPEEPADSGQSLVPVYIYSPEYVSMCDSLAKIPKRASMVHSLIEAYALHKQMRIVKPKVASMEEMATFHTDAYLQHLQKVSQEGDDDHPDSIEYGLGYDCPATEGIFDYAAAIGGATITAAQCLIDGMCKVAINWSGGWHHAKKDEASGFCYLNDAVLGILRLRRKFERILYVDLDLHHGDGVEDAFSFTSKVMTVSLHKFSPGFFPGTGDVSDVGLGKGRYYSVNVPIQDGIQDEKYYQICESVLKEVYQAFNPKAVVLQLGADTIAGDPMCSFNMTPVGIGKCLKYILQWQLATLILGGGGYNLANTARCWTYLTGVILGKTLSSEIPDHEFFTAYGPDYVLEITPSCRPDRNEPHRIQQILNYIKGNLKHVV

[8] = target: Histone deacetylase 8 (Homo sapiens, UniProt Q9BY41); experiment: Inhibition of recombinant human HDAC8 using Boc-Lys (trifluroacetyl)-AMC as substrate preincubated with compound for 1 hr followed by substrate addition and measured after 30 mins by microplate reader assay
Sequence of Histone deacetylase 8 (Q9BY41 whole entry): as the sequence (Q9BY41 whole entry, looked up) above

[9] = Binding affinity to STAT2 (unknown origin) assessed as dissociation constant by SPR assay; design: species or system Homo sapiens
[10] = test system: A549; experiment: In vivo antitumor activity against human A549 cells xenografted in female BALB/c nu/nu mouse assessed as reduction in tumor weight at 5 mg/kg, iv administered every 3 days for 18 days using self assembled nanoparticle as source of compound and measured every 3 days; conditions: time 3.0 day
[11] = test system: A549; experiment: In vivo antitumor activity against human A549 cells xenografted in female BALB/c nu/nu mouse assessed as tumor volume at 5 mg/kg, iv administered every 3 days using self assembled nanoparticle as source of compound and measured on 18 day relative to control; type: functional; conditions: time 3 day
[12] = test system: A549; experiment: In vivo antitumor activity against human A549 cells xenografted in female BALB/c nu/nu mouse assessed as tumor volume at 5 mg/kg, iv administered every 3 days and measured on 18 day relative to control; type: functional; conditions: time 3 day
[13] = Toxicity in female BALB/c nu/nu mouse xenografted with human A549 cells assessed as effect on body weight at 5 mg/kg, iv and measured regularly; type: organism-based; conditions: in vivo
[14] = Drug uptake in tumor of nude mouse xenografted with A549 cells assessed as accumulation of tumor tissues at 5 mg/kg, iv using self assembled nanoparticle as source of compound by LC-MS/MS analysis; type: ADME, organism-based; conditions: in vivo
[15] = target: Histone deacetylase 5 (Homo sapiens, UniProt Q9UQL6); experiment: Inhibition of recombinant human HDAC5 using Boc-Lys (trifluroacetyl)-AMC as substrate preincubated with compound for 1 hr followed by substrate addition and measured after 30 mins by microplate reader assay
Sequence of Histone deacetylase 5 (Q9UQL6 whole entry): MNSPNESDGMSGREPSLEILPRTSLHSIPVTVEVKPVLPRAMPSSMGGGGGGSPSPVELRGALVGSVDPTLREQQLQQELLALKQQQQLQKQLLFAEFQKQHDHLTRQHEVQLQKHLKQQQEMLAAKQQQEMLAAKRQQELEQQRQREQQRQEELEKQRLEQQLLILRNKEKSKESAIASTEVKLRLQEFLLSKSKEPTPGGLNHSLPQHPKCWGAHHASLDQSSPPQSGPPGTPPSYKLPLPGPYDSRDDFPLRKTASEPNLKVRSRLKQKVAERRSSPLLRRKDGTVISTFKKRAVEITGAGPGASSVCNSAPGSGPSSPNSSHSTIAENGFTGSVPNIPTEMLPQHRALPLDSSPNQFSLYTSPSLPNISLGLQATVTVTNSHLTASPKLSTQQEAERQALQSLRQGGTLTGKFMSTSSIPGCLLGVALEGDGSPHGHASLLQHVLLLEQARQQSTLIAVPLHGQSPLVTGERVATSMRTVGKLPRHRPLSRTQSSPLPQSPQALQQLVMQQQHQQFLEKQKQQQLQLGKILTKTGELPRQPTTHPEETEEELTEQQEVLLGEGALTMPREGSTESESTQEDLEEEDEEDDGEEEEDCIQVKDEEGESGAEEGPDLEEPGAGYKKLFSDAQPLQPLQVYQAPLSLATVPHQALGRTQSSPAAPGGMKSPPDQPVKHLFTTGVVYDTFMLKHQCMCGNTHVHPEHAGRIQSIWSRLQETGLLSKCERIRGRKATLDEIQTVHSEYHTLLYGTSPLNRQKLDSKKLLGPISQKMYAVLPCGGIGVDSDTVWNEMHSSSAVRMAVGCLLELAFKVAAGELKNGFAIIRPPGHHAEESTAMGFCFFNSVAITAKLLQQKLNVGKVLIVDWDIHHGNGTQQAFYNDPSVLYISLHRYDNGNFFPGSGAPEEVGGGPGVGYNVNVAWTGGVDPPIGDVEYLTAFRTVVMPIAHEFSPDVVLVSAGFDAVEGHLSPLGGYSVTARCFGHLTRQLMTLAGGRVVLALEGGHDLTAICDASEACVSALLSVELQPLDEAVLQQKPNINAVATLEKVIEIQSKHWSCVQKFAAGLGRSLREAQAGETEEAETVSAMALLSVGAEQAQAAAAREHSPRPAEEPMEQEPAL

[16] = test system: HCT-116; experiment: cells; conditions: Homo sapiens, HCT-116, 72 h
Description: Antiproliferative activity against human HCT-116 cells assessed as inhibition of cell proliferation incubated for 72 hrs by CCK-8 assay

[17] = Toxicity in female BALB/c nu/nu mouse xenografted with human A549 cells assessed as effect on kidney at 5 mg/kg, iv by H and E staining based analysis; type: organism-based; conditions: in vivo
[18] = test system: A549; experiment: Induction of autophagy in human A549 cells transfected with mRFP-GFP-LC3 assessed as decrease in P62 protein level at 0.5 uM incubated for 12 hrs by Western blot analysis; type: functional, cell-based
[19] = test system: A549; experiment: Induction of apoptosis in human A549 cells assessed as late apoptotic cells at 4 uM incubated for 24 hrs by Annexin V-FITC/PI staining based flow cytometric analysis (reference value: 2.18%); type: functional
[20] = Drug uptake in human A549 cells assessed as increase in red fluorescence incubated for 4 hrs using chlorine e6 loaded self assembled nanoparticle as source of compound by fluorescence based flow cytometric analysis; type: ADME, cell-based; conditions: a549, 4 h
[21] = Toxicity in female BALB/c nu/nu mouse xenografted with human A549 cells assessed as effect on spleen at 2.5 mg/kg, iv by H and E staining based analysis; type: organism-based; conditions: in vivo
[22] = target: T1, Signal transducer and activator of transcription 3; experiment: Inhibition of STAT3 phosphorylation in human A549 cells at 0.1 to 8 uM incubated for 12 hrs by Western blot analysis; type: cell-based; conditions: dose 0.1-8 µM
[23] = test system: A549; experiment: Induction of apoptosis in human A549 cells assessed as early apoptotic cells at 4 uM incubated for 24 hrs by Annexin V-FITC/PI staining based flow cytometric analysis (reference value: 1.53%); type: functional
[24] = Toxicity in female BALB/c nu/nu mouse xenografted with human A549 cells assessed as effect on lung at 5 mg/kg, iv by H and E staining based analysis; type: organism-based; conditions: in vivo
[25] = Toxicity in female BALB/c nu/nu mouse xenografted with human A549 cells assessed as effect on liver at 5 mg/kg, iv by H and E staining based analysis; type: organism-based; conditions: in vivo
[26] = test system: A549; experiment: Induction of apoptosis in human A549 cells assessed as viable cells at 2 uM incubated for 24 hrs by Annexin V-FITC/PI staining based flow cytometric analysis (reference value: 95.08%); type: functional; conditions: Homo sapiens, A549, read-out: Activity
[27] = test system: A549; experiment: In vivo antitumor activity against human A549 cells xenografted in female BALB/c nu/nu mouse assessed as decrease in STAT3 phosphorylation level at 5 mg/kg, iv administered every 3 days for 9 days by Western blotting analysis; type: functional, organism-based; conditions: time 3.0 day
[28] = Toxicity in female BALB/c nu/nu mouse xenografted with human A549 cells assessed as effect on liver at 2.5 mg/kg, iv by H and E staining based analysis; type: organism-based; conditions: in vivo

Drug uptake [1]: Active | IC50 [2]: 265 nM | IC50 [3]: 350 nM | Activity ([3]; time 1.5 hrs): Dose-Dependent Effect | inhibition [7]: Active | IC50 [8]: 1420 nM | Kd [9]: Not Active | Drug uptake [14]: Active | IC50 [15]: > 10000 nM | IC50 [16]: 40 nM | Drug uptake [20]: Active | inhibition [22]: Active
SMILES: C=C1C(=O)O[C@@H]2C[C@@]3(C)CC[C@@H](OC(=O)[C@H](C)NC(=O)c4ccc(/C=C/C(=O)NO)cc4)C(=C)[C@@H]3C[C@H]12
Activity [4]: Active | Activity [5]: Non-Toxic | Activity [6]: Non-Toxic | Activity [10]: Active | Activity [11]: 19.9% | Activity [12]: 47.3% | Activity [13]: Non-Toxic | Activity [17]: Non-Toxic | Activity [18]: Active | Activity [19]: 35.53% | Activity [21]: Non-Toxic | Activity [23]: 5.3% | Activity [24]: Non-Toxic | Activity [25]: Non-Toxic | viability at 2 µM [26]: 82.5% | Activity [27]: Active | Activity [28]: Non-Toxic
